Among the data in patent US20230373952A1, “LACTAM COMPOUNDS AS Kv1.3 POTASSIUM SHAKER CHANNEL BLOCKERS” (D.E. Shaw Research, LLC, priority 2020, published 2023) are IC50 values, retold here.

For orientation: IC50 means the concentration that inhibits the measured activity by half.

The structures appear in SMILES notation.

For one experiment, the target named is hERG channel (Homo sapiens, UniProt Q12809). Briefly: cell-based.
A further experiment concerns the target T1, Kv1.3 potassium channel (Homo sapiens, UniProt P22001).
T1 construct: expressed in transfected cells
Put plainly: Kv1.3 potassium channel blocker activity, automated whole-cell patch clamp (Patchliner). It counts as cell-based. Particulars: CHO-K1 cells stably expressing Kv1.3; whole-cell current inhibition, Hill fit; read-out: Kv1.3 IC50. As to the method: CHO-K1 cells stably expressing Kv1.3 were grown in DMEM containing 10% heat-inactivated FBS, 1 mM sodium pyruvate, 2 mM L-glutamine and G418 (500 μg/ml).
The currents were evoked by applying 100 ms depolarizing pulses from −90 mV (holding potential) to +40 mV were applied with 0.1 Hz frequency. […] 10-second breaks were used between pulse trains (see Table H below).
Passive leak currents were subtracted online using a P/4 procedure (HEKA Elektronik Dr. Schulze GmbH). […] Total compound incubation time before the next pulse train was not longer than 10 seconds. Peak current inhibition was observed during compound equilibration.
On the technique in general: The patch-clamp technique gives a direct electrical read-out from membranes.

T1 sequence (P22001 whole entry): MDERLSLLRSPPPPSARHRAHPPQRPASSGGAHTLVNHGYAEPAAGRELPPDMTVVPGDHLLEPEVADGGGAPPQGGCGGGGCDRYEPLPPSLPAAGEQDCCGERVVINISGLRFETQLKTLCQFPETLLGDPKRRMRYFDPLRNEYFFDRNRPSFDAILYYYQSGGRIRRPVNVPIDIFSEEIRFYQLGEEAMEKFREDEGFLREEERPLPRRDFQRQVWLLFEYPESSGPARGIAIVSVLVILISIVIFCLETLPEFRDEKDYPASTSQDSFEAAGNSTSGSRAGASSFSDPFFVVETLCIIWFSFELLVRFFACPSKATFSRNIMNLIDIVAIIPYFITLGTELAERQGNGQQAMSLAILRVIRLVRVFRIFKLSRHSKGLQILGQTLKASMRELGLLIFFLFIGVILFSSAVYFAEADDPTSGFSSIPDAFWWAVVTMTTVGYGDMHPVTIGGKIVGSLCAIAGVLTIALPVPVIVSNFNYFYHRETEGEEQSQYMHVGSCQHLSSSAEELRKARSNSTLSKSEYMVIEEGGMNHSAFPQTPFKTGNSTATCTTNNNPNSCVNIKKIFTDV
Chain of hERG channel (Q12809 whole entry): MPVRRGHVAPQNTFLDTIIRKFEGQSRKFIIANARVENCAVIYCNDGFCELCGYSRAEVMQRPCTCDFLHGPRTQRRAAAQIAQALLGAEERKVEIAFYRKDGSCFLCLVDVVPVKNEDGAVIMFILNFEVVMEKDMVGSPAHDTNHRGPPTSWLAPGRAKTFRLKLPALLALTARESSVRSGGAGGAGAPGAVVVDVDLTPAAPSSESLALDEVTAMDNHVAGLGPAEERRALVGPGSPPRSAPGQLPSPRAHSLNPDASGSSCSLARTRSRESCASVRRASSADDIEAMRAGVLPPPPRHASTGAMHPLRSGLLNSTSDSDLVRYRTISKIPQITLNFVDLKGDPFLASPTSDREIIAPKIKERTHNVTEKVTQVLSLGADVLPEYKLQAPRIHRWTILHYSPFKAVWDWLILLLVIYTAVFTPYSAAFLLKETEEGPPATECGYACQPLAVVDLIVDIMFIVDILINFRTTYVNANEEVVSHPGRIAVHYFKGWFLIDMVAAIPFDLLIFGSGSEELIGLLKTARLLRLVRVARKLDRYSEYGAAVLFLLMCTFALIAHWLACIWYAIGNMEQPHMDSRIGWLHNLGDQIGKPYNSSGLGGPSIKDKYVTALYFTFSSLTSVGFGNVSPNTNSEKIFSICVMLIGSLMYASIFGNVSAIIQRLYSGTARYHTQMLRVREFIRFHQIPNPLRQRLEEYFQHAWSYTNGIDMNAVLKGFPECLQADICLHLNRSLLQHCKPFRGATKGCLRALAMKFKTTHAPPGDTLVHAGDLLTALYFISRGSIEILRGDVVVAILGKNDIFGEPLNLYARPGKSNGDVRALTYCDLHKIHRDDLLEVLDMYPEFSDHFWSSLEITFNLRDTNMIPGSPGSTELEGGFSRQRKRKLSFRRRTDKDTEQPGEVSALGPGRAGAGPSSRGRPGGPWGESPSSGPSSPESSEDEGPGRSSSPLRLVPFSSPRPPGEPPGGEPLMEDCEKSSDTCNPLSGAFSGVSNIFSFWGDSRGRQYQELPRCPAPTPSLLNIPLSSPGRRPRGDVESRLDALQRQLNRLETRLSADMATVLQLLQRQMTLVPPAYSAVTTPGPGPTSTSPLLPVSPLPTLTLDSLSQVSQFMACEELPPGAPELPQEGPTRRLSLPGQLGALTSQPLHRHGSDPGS
Description for hERG channel: This assay is used to evaluate the disclosed compounds' inhibition activities against the hERG channel.
CHO-K1 cells stably expressing hERG were grown in Ham's F-12 Medium with glutamine containing 10% heat-inactivated FBS, 1% penicillin/streptomycin, hygromycin (100 μg/ml) and G418 (100 μg/ml). Cells were grown in culture flasks at 37° C. in a 5% CO2-humidified incubator.
All compounds were dissolved in DMSO at 30 mM. Compound stock solutions were freshly diluted with external solution to concentrations of 30 nM, 100 nM, 300 nM, 1 μM, 3 μM, 10 μM, 30 μM and 100 μM. The highest content of DMSO (0.3%) was present in 100 μM.
The voltage protocol (see Table I) was designed to simulate voltage changes during a cardiac action potential with a 300 ms depolarization to +20 mV (analogous to the plateau phase of the cardiac action potential), a repolarization for 300 ms to −50 mV (inducing a tail current) and a final step to the holding potential of −80 mV. The pulse frequency was 0.3 Hz. Control (compound-free) and compound pulse trains for each compound concentration applied contained 70 pulses.
Whole-cell current recordings and compound application were enabled by means of an automated patch clamp platform Patchliner (Nanion). EPC 10 patch clamp amplifier (HEKA) along with Patchmaster software (HEKA Elektronik Dr. Schulze GmbH) was used for data acquisition. Data were sampled at 10 kHz without filtering. Increasing compound concentrations were applied consecutively to the same cell without washouts in between.
AUC and PEAK values were obtained with Patchmaster (HEKA Elektronik Dr. Schulze GmbH). To determine IC50 the last single pulse in the pulse train corresponding to a given compound concentration was used. Obtained AUC and PEAK values in the presence of compound were normalized to control values in the absence of compound.

Regarding `O=C1N[C@H](c2c(O)ccc(Cl)c2Cl)CCN1[C@@H]1CCNC1` (single isomer, unassigned) [Compound 11, 4-(2,3-dichloro-6-hydroxyphenyl)-1-[pyrrolidin-3-yl]-tetrahydropyrimidin-2(1H)-one], the IC50 against hERG channel was more than 10 µM; at Kv1.3 potassium channel, less than 1 µM.
Turning to `O=C1C[C@@H](c2c(O)ccc(Cl)c2Cl)CN1[C@H]1CCNC1` (single isomer, unassigned) [Compound 12, 4-(2,3-dichloro-6-hydroxyphenyl)-[1,3-bipyrrolidin]-2-one], the IC50 against hERG channel is more than 30 µM; on Kv1.3 potassium channel, less than 1 µM.
In the same order, the values of `O=C1C[C@H](c2c(O)ccc(Cl)c2Cl)CN1[C@@H]1CCNC1` (single isomer, unassigned) [Compound 13, 4-(2,3-dichloro-6-hydroxyphenyl)-[1,3-bipyrrolidin]-2-one] are more than 10 µM and less than 0.1 µM.
In the same order, the values of `O=C1C[C@@H](c2c(O)ccc(Cl)c2Cl)CN1[C@@H]1CCNC1` (single isomer, unassigned) [Compound 14, 4-(2,3-dichloro-6-hydroxyphenyl)-[1,3-bipyrrolidin]-2-one] are more than 30 µM and less than 1 µM.
Regarding `O=C1C[C@H](c2c(O)ccc(Cl)c2Cl)CN1[C@H]1CCNC1` (single isomer, unassigned) [Compound 15, 4-(2,3-dichloro-6-hydroxyphenyl)-[1,3-bipyrrolidin]-2-one], the IC50 against hERG channel is more than 30 µM; at Kv1.3 potassium channel, less than 0.1 µM.
The like results for `O=C1C[C@@H](c2c(O)ccc(Cl)c2Cl)CN1[C@H]1C[C@H](CO)C1` (single isomer, unassigned; isomer 1) [Compound 25] were, in that order, more than 30 µM and less than 0.1 µM.
In the same order, the values of `O=C1C[C@@H](c2c(O)ccc(Cl)c2Cl)CN1C[C@H]1C[C@H](O)C1` (single isomer, unassigned; isomer 1) [Compound 31] are more than 30 µM and less than 0.1 µM.
Consider `CC(CO)N1C[C@H](c2c(O)ccc(Cl)c2Cl)CC1=O` (single isomer, unassigned; isomer 1) [Compound 38], for which the values for the concentration for half-maximal inhibition (IC50) against hERG channel and at Kv1.3 potassium channel were more than 30 µM and less than 1 µM, respectively.
As to `NC[C@@H](O)CN1C[C@H](c2c(O)ccc(Cl)c2Cl)CC1=O` (single isomer, unassigned; isomer 1) [Compound 51], the IC50 was more than 100 µM at hERG channel and less than 0.1 µM on Kv1.3 potassium channel.
Consider `O=C1O[C@H](c2c(O)ccc(Cl)c2Cl)CN1CCO` (single isomer, unassigned; isomer 1) [Compound 93, 5-(2,3-dichloro-6-hydroxyphenyl)-3-(2-hydroxyethyl)oxazolidin-2-one isomer 1], for which the results for the IC50 on hERG channel and at Kv1.3 potassium channel were more than 100 µM and less than 1 µM, respectively.
The like results for `O=C1CO[C@H](c2c(O)ccc(Cl)c2Cl)CN1CCO` (single isomer, unassigned; isomer 1) [Compound 95, 6-(2,3-dichloro-6-hydroxyphenyl)-4-(2-hydroxyethyl)morpholin-3-one isomer 1] were, in that order, more than 100 µM and less than 1 µM.
Take `O=C1C[C@@H](c2c(O)ccc(Cl)c2Cl)CN1[C@H]1C[C@@H](CO)C1` (single isomer, unassigned; isomer 2) [Compound 26]: the IC50 against hERG channel is more than 30 µM; on Kv1.3 potassium channel, less than 0.1 µM.
In the same order, the values of `O=C1C[C@@H](c2c(O)ccc(Cl)c2Cl)CN1C[C@H]1C[C@@H](O)C1` (single isomer, unassigned; isomer 2) [Compound 32] are more than 30 µM and less than 0.1 µM.
In the case of `C[C@@H](CO)N1C[C@H](c2c(O)ccc(Cl)c2Cl)CC1=O` (single isomer, unassigned; isomer 2) [Compound 39], the half-inhibitory concentration (IC50) is more than 100 µM on hERG channel and less than 1 µM at Kv1.3 potassium channel.
The like results for `NCC(O)CN1C[C@H](c2c(O)ccc(Cl)c2Cl)CC1=O` (single isomer, unassigned; isomer 2) [Compound 52] were, in that order, more than 100 µM and less than 0.1 µM.
The like results for `O=C1O[C@@H](c2c(O)ccc(Cl)c2Cl)CN1CCO` (single isomer, unassigned; isomer 2) [Compound 94, 5-(2,3-dichloro-6-hydroxyphenyl)-3-(2-hydroxyethyl)oxazolidin-2-one isomer 2] were, in that order, more than 100 µM and less than 1 µM.
Regarding `O=C1C[C@@H](c2c(O)ccc(Cl)c2Cl)CN1[C@H]1C[C@@](O)(CO)C1` (single isomer, unassigned; isomer 3) [Compound 70], the values for the half-inhibitory concentration (IC50) at hERG channel and at Kv1.3 potassium channel were more than 100 µM and less than 0.1 µM, respectively.
As to `O=C1C[C@@H](c2c(O)ccc(Cl)c2Cl)CN1[C@H]1C[C@](O)(CO)C1` (single isomer, unassigned; isomer 4) [Compound 71], the values for the IC50 against hERG channel and at Kv1.3 potassium channel were more than 100 µM and less than 0.1 µM, respectively.
The like results for `C[C@@H]1C(=O)N(C2CNC2)C[C@@H]1c1c(O)ccc(Cl)c1Cl` (single isomer, unassigned; isomer 4) [Compound 90, 1-(azetidin-3-yl)-4-(2,3-dichloro-6-hydroxyphenyl)-3-methylpyrrolidin-2-one isomer 4] were, in that order, more than 100 µM and less than 1 µM.
The like results for `CC1[C@@H](c2c(O)ccc(Cl)c2Cl)CC(=O)N1C1CNC1` (stereo in doubt) [Compound 76, (4R,5R)-1-(azetidin-3-yl)-4-(2,3-dichloro-6-hydroxyphenyl)-5-methylpyrrolidin-2-one] were, in that order, more than 100 µM and less than 1 µM.
In the same order, the values of `CC1[C@H](c2c(O)ccc(Cl)c2Cl)CC(=O)N1C1CNC1` (stereo in doubt) [Compound 77, (4S,5S)-1-(azetidin-3-yl)-4-(2,3-dichloro-6-hydroxyphenyl)-5-methylpyrrolidin-2-one] are more than 30 µM and less than 0.1 µM.
As to `CC1[C@H](c2c(O)ccc(Cl)c2Cl)CC(=O)N1C[C@H](O)CO` (stereo in doubt) [Compound 79, (4S,5S)-4-(2,3-dichloro-6-hydroxyphenyl)-1-[(2S)-2,3-dihydroxypropyl]-5-methylpyrrolidin-2-one], the half-inhibitory concentration (IC50) on hERG channel is more than 30 µM; on Kv1.3 potassium channel it was less than 0.1 µM.
The like results for `CC1[C@H](c2c(O)ccc(Cl)c2Cl)CC(=O)N1CCO` (stereo in doubt) [Compound 81, (4S,5S)-4-(2,3-dichloro-6-hydroxyphenyl)-1-(2-hydroxyethyl)-5-methylpyrrolidin-2-one] were, in that order, more than 30 µM and less than 0.1 µM.
`O=C1C[C@@H](c2c(O)ccc(Cl)c2Cl)CN1C1CN(CCO)C1` [Compound 16, (4S)-4-(2,3-dichloro-6-hydroxyphenyl)-1-[1-(2-hydroxyethyl)azetidin-3-yl]pyrrolidin-2-one]: the half-maximal inhibitory concentration (IC50) against hERG channel was more than 10 µM; on Kv1.3 potassium channel, less than 0.1 µM.
In the same order, the values of `O=C1C[C@@H](c2c(O)ccc(Cl)c2Cl)CN1C1CCOCC1` [Compound 17, (4S)-4-(2,3-dichloro-6-hydroxyphenyl)-1-(pyran-4-yl)pyrrolidin-2-one] are more than 30 µM and less than 1 µM.
With `O=C1C[C@@H](c2c(O)ccc(Cl)c2Cl)CN1C1CNC1` [Compound 19, (4S)-1-(azetidin-3-yl)-4-(2,3-dichloro-6-hydroxyphenyl)pyrrolidin-2-one], the IC50 was more than 100 µM against hERG channel and less than 0.1 µM at Kv1.3 potassium channel.
For the molecule `O=C1C[C@@H](c2c(O)ccc(Cl)c2Cl)CN1CC1CNC1` [Compound 20, (4S)-1-(azetidin-3-ylmethyl)-4-(2,3-dichloro-6-hydroxyphenyl)pyrrolidin-2-one], the results for the half-maximal inhibitory concentration (IC50) at hERG channel and on Kv1.3 potassium channel were more than 100 µM and less than 0.1 µM, respectively.
In the same order, the values of `NCCN1C[C@H](c2c(O)ccc(Cl)c2Cl)CC1=O` [Compound 21, (4S)-1-(2-aminoethyl)-4-(2,3-dichloro-6-hydroxyphenyl)pyrrolidin-2-one] are more than 100 µM and less than 0.1 µM.
Turning to `O=C1C[C@@H](c2cc(Cl)c(Cl)cc2O)CN1C1CNC1` [Compound 22, (4S)-1-(azetidin-3-yl)-4-(4,5-dichloro-2-hydroxyphenyl)pyrrolidin-2-one], the concentration for half-maximal inhibition (IC50) on hERG channel is more than 100 µM; at Kv1.3 potassium channel it was less than 1 µM.
In the same order, the values of `Cn1cc(CN2C[C@H](c3c(O)ccc(Cl)c3Cl)CC2=O)cn1` [Compound 23, (4S)-4-(2,3-dichloro-6-hydroxyphenyl)-1-[(1-methylpyrazol-4-yl)methyl]pyrrolidin-2-one] are more than 30 µM and less than 1 µM.
The like results for `O=C1C[C@@H](c2c(O)ccc(Cl)c2Cl)CN1C1COC1` [Compound 24, (S)-4-(2,3-dichloro-6-hydroxyphenyl)-1-(oxetan-3-yl)pyrrolidin-2-one] were, in that order, more than 30 µM and less than 0.1 µM.
In the same order, the values of `O=C1C[C@@H](c2c(O)ccc(Cl)c2Cl)CN1CCO` [Compound 29, (4S)-4-(2,3-dichloro-6-hydroxyphenyl)-1-(2-hydroxyethyl)pyrrolidin-2-one] are more than 30 µM and less than 0.1 µM.
On to `O=C1C[C@@H](c2c(O)ccc(Cl)c2Cl)CN1C[C@H](O)CO` [Compound 30, (4S)-4-(2,3-dichloro-6-hydroxyphenyl)-1-[(2S)-2,3-dihydroxypropyl]pyrrolidin-2-one], for which the half-maximal inhibitory concentration (IC50) against hERG channel was more than 100 µM; on Kv1.3 potassium channel, less than 0.1 µM.
`O=C1C[C@@H](c2c(O)ccc(Cl)c2Cl)CN1C[C@@H](O)CO` [Compound 33, (4S)-4-(2,3-dichloro-6-hydroxyphenyl)-1-[(2R)-2,3-dihydroxypropyl]pyrrolidin-2-one]: the half-maximal inhibitory concentration (IC50) against hERG channel is more than 100 µM; at Kv1.3 potassium channel, less than 0.1 µM.
